US10800791B2, “Triazole ACC inhibitors and uses thereof” (Gilead Apollo, LLC, priority 2015, dated 2020)
Values after ≈ are worked out from the molar mass of the structure shown. Where two headings read alike, the source gives them in different places.

Tests used:
human (hACC2) = human (hACC2) (Homo sapiens, UniProt O00763); experiment: In vitro ACC inhibition assay (ADP-Glo), hACC2; format: biochemical; conditions: 5 nM ACC2, 20 μM ATP, 20 μM acetyl-CoA
Procedure: The detailed procedure is as follows. […] 10 μL ADP glo reagent was added. […] 20 μL kinase detection reagent was added.

C. albicans = experiment: Antifungal Activity Assay (broth microtiter MIC), C. albicans; format: cell-based, Candida albicans; conditions: 3 replicates, MIC recorded at 48 h; for MIC: Candida albicans, ATCC90028, 48 h, ATCC 90028, read-out: MIC, C. albicans ATCC 90028
How it was run: (§1)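 MIC read by eye at 48 h, comparing challenged wells with the growth control. Yeasts grown overnight on Sabouraud dextrose agar at 35° C, suspended in RPMI 1640+MOPS and added at 2.5×10^3 CFU/mL final, following CLSI M27-A3.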

C. krusei = experiment: Antifungal Activity Assay (broth microtiter MIC), C. krusei; format: cell-based, Candida krusei; conditions: 3 replicates, MIC recorded at 48 h; for MIC: Pichia kudriavzevii, ATCC6258, 48 h, ATCC 6258, read-out: MIC, C. krusei ATCC 6258
How it was run: as §1

C. parapsilosis = experiment: Antifungal Activity Assay (broth microtiter MIC), C. parapsilosis; format: cell-based, Candida parapsilosis; conditions: 3 replicates, MIC recorded at 48 h; for MIC: Lodderomyces parapsilosis, ATCC22019, 48 h, ATCC 22019, read-out: MIC, C. parapsilosis ATCC 22019
How it was run: as §1

Botrtyis cinerea (Bc) = experiment: Growth inhibition assay of fungal pathogens, Bc; format: cell-based; conditions: 48 h
Procedure: (§2) Compounds of the present invention were evaluated in a growth inhibition assay to determine the ability to control the growth of fungal pathogens, such as Botrtyis cinerea (Bc), Collectotrichum graminicola (Cg), Diplodia maydis (Dm), Fusarium moniliforme (Fm), Fusarium virguliforme (Fv), Phytophthora capsici (Pc), Rhizoctonia solani (Rs), and Septoria tritici (St).
(§3) Compounds to be tested were dissolved in DMSO at 2.5 mg/ml to produce compound stock solutions (“stocks”). Stocks were diluted with DMSO by a five-fold dilution in a 96-well stock plate, and two sets of final concentrations of 50, 10, and 2 ppm or 2, 0.4, and 0.08 ppm were obtained in vitro. A set of positive controls was also prepared, with various concentrations of Soraphen (2, 0.4, and 0.08 ppm), Metalaxyl (1.1, 0.22, and 0.04 ppm), and Metconazole (2, 0.4, and 0.08 ppm or 0.2, 0.04, and 0.008 ppm) after the five-fold dilutions. Negative controls on each plate included 2% DMSO, water, and a blank (media+2% DMSO).
(§4) Fungal spores were isolated from previously sub-cultured plates of Botrtyis cinerea (Bc), Collectotrichum graminicola (Cg), Diplodia maydis (Dm), Fusarium moniliforme (Fm), Fusarium virguliforme (Fv), Phytophthora capsici (Pc), and Septoria tritici (St). The isolated spores were diluted to individual concentrations with a 17% V8 liquid media. For Rhizoctonia solani (Rs) and Pythium irregulare, 1.5 mm mycelial plugs were used in place of spores and/4 Potato Dextrose Broth (PDB) was used for dilution. The spore concentrations and plug sizes were based on growth curves generated at 48 hours for each pathogen.
(§5) In a second 96-well plate, the spores or mycelial plugs, media, diluted compound solutions, and controls were combined. Once the compound was added, a true final concentration of compound in each well was measured by an OD600 reading, which adjusted for any compound precipitation that might have occurred in the well. Plate readings were repeated at both 24 and 48 hours. The blank negative control was used as a background subtraction. Additional visual ratings were performed at both 24 and 48 hours for checking on precipitation and confirming efficacy. Visual and OD600 ratings of the compounds at 48 hours were compared to the 2% DMSO negative control, and the percent of pathogen growth inhibition was determined based on those values.

[1] = test system: Collectotrichum graminicola (Cg); experiment: Growth inhibition assay of fungal pathogens, Cg; format: cell-based; conditions: 48 h
Procedure: as §2, §3, §4, §5

Diplodia maydis (Dm) = experiment: Growth inhibition assay of fungal pathogens, Dm; format: cell-based; conditions: Stenocarpella maydis, 48 h
Procedure: as §2, §3, §4, §5

[2] = test system: Fusarium moniliforme (Fm); experiment: Growth inhibition assay of fungal pathogens, Fm; format: cell-based; conditions: for IC90: Fusarium verticillioides, 48 h, read-out: Concentration at 90% Inhibition Fm
Procedure: as §2, §3, §4, §5

[3] = test system: Fusarium virguliforme (Fv); experiment: Growth inhibition assay of fungal pathogens, Fv; format: cell-based; conditions: 48 h
Procedure: as §2, §3, §4, §5

[4] = test system: Phytophthora capsici (Pc); experiment: Growth inhibition assay of fungal pathogens, Pc; format: cell-based; conditions: 48 h
Procedure: as §2, §3, §4, §5

Rhizoctonia solani (Rs) = experiment: Growth inhibition assay of fungal pathogens, Rs; format: cell-based; conditions: 48 h
Procedure: as §2, §3, §4, §5

Septoria tritici (St) = experiment: Growth inhibition assay of fungal pathogens, St; format: cell-based; conditions: Zymoseptoria tritici, 48 h
Procedure: as §2, §3, §4, §5

fungal (fACC2) = fungal (fACC2) (UniProt Q00955); conditions: read-out: fACC2 (in vitro ACC2 Inhibition Assay, IC50), ADP-Glo, 5 nM ACC2, 20 μM ATP, 20 μM acetyl-CoA
Sequence of fungal (fACC2) (Q00955 whole entry): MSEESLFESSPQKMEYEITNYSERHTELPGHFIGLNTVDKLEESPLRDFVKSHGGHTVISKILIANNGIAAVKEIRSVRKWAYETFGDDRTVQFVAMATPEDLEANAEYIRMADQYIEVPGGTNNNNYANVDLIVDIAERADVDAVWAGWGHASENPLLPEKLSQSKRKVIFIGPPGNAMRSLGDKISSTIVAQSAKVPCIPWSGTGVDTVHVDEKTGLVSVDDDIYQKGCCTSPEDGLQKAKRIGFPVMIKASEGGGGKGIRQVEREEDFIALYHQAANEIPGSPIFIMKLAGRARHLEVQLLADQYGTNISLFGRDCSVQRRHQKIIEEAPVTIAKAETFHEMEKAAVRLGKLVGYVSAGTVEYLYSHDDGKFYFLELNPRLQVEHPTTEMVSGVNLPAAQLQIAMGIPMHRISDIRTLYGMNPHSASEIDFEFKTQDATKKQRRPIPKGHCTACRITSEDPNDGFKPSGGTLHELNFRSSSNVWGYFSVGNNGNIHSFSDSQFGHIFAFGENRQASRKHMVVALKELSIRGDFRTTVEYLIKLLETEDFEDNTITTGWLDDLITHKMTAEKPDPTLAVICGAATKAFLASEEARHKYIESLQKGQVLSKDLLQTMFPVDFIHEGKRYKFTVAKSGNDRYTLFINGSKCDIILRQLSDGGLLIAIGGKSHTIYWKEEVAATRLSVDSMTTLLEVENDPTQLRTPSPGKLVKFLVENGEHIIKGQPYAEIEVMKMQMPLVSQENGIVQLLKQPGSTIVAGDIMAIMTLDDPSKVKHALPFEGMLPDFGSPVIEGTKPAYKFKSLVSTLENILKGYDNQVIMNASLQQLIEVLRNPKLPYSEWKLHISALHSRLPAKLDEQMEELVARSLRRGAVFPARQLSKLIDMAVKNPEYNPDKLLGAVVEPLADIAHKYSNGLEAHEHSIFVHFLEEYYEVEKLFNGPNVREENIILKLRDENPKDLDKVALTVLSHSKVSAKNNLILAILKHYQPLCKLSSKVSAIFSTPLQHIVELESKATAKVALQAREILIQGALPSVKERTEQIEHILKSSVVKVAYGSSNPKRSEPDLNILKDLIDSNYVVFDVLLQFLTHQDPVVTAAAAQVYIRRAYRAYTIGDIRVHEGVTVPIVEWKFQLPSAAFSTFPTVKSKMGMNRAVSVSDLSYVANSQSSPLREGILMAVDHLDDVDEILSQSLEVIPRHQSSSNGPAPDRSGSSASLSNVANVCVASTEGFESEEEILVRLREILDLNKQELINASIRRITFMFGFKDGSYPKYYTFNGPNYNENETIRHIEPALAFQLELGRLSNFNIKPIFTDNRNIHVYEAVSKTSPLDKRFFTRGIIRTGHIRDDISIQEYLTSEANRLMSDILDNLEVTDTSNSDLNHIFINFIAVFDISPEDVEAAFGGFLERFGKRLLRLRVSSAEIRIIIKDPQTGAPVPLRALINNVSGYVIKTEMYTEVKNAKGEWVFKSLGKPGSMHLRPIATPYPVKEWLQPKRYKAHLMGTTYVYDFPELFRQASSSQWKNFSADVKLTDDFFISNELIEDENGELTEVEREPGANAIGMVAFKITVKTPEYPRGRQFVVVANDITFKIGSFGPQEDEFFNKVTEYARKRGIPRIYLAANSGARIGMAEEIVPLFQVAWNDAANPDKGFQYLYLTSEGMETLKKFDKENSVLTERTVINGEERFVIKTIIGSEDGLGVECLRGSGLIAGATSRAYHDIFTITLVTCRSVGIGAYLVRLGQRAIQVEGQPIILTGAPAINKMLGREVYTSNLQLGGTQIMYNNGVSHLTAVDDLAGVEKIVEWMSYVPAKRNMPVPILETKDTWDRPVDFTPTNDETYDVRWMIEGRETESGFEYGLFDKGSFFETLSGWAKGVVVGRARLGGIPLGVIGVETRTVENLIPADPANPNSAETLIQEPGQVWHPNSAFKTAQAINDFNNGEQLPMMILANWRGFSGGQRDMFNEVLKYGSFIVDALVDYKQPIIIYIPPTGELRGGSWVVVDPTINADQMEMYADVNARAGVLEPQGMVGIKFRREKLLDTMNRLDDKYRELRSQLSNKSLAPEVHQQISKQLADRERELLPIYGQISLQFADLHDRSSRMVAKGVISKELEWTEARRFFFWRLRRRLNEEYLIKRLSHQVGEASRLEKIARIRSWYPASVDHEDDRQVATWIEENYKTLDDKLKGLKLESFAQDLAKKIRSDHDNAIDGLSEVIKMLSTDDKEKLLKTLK

[5] = Fusarium moniliforme, growth inhibition at 48 hours vs 2% DMSO control

Sequence of human (hACC2) (O00763 whole entry): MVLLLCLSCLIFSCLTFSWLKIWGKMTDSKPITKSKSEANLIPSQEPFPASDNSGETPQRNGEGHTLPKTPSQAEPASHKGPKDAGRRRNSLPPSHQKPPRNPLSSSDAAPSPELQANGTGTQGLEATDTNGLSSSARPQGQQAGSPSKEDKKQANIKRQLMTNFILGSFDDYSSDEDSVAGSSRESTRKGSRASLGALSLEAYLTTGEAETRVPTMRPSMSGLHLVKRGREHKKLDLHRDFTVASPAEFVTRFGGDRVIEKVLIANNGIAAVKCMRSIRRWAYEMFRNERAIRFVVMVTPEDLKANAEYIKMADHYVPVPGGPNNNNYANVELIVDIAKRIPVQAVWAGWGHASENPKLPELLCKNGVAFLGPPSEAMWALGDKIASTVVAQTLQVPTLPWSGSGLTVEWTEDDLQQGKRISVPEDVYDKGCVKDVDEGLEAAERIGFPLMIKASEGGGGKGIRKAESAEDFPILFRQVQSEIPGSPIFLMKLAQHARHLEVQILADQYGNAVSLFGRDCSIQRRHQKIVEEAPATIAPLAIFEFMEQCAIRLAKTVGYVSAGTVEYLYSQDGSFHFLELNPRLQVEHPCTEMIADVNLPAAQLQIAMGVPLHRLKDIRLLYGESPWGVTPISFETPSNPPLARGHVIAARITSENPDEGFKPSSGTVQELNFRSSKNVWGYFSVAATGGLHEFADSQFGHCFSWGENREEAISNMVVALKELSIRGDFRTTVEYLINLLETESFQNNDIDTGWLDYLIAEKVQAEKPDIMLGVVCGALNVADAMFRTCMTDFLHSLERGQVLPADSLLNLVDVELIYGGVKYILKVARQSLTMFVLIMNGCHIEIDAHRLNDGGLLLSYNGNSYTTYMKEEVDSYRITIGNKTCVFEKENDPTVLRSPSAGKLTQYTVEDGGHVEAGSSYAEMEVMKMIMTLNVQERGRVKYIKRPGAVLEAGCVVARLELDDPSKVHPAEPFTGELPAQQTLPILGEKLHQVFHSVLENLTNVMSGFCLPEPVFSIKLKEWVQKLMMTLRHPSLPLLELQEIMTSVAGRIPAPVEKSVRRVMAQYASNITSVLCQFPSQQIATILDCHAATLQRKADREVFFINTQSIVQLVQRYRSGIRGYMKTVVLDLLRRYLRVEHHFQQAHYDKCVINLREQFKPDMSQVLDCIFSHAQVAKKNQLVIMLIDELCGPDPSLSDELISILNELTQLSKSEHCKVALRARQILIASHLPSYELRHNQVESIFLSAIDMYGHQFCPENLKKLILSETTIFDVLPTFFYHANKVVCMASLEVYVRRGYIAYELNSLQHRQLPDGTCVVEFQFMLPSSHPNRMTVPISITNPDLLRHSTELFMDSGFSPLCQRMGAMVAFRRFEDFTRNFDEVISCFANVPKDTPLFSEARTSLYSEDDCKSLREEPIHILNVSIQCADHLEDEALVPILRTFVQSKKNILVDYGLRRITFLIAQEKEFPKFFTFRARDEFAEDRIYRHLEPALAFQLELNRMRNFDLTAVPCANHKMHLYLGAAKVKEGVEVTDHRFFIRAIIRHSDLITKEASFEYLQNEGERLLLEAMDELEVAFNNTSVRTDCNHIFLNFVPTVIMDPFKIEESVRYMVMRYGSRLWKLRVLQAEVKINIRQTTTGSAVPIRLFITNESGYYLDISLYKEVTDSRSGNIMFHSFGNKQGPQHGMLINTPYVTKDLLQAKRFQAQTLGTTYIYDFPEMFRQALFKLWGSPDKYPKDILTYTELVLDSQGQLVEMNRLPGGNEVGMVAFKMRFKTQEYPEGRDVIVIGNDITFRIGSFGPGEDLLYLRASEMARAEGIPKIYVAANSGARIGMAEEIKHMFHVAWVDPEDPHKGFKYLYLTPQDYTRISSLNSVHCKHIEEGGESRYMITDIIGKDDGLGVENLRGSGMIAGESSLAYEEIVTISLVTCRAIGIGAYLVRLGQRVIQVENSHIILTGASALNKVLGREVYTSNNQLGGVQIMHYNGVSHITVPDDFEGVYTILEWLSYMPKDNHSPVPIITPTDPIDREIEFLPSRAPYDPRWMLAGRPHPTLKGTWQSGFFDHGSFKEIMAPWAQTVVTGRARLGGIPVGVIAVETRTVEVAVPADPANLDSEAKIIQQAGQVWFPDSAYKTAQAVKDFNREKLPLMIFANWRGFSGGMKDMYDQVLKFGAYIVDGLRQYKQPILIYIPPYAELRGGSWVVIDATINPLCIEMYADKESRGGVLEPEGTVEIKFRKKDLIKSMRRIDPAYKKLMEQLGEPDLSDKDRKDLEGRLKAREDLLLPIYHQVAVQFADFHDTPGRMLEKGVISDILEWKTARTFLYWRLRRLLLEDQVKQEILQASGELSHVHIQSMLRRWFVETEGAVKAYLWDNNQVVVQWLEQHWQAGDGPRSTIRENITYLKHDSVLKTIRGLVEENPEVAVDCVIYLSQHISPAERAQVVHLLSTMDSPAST

Q: What does the source list for `COc1ccc(F)cc1[C@H](Cn1c(=O)n(C(C)(C)C(=O)O)c(=O)c2c(C)c(-n3nccn3)sc21)OC1CCC(=O)CC1` [Compound I-30, (R)-2-(1-(2-(5-fluoro-2-methoxyphenyl)-2-((4-oxocyclo-hexyl)oxy)ethyl)-5-methyl-2,4-dioxo-6-(2H-1,2,3-triazol-2-yl)-1,4-dihydrothieno[2,3-d]pyrimidin-3(2H)-yl)-2-methylpropanoic acid]?
A: IC50 (human (hACC2); Table 2a): 1 to 5 nM; IC50 (human (hACC2); Table 2b, additional results): 1 to 5 nM; MIC (C. albicans; Table 3a): 2.1 to 4 µg/mL (≈ 3.5 to 6.67 µM); MIC (C. albicans; Table 3b (additional results)): 1.01 to 2 µg/mL (≈ 1.68 to 3.34 µM); MIC (C. krusei; Table 3a): 2.1 to 4 µg/mL (≈ 3.5 to 6.67 µM); MIC (C. krusei; Table 3b (additional results)): 1.01 to 2 µg/mL (≈ 1.68 to 3.34 µM); MIC (C. parapsilosis; Table 3a): 2.1 to 4 µg/mL (≈ 3.5 to 6.67 µM); MIC (C. parapsilosis; Table 3b (additional results)): 2.01 to 4 µg/mL (≈ 3.35 to 6.67 µM); IC90 (Botrtyis cinerea (Bc); Botrtyis cinerea, growth inhibition at 48 hours vs 2% DMSO control, read-out: Concentration at 90% Inhibition Bc): 10 µg/mL (≈ 16.7 µM); IC90 ([1]; Collectotrichum graminicola, growth inhibition at 48 hours vs 2% DMSO control, read-out: Concentration at 90% Inhibition Cg): > 50 µg/mL; IC90 (Diplodia maydis (Dm); Diplodia maydis, growth inhibition at 48 hours vs 2% DMSO control, read-out: Concentration at 90% Inhibition Dm): > 50 µg/mL; IC90 [2, 5]: 2 µg/mL (≈ 3.34 µM); IC90 ([3]; growth inhibition at 48 hours vs 2% DMSO control, read-out: Concentration at 90% Inhibition Fv): > 50 µg/mL; IC90 ([4]; growth inhibition at 48 hours vs 2% DMSO control, read-out: Concentration at 90% Inhibition Pc): > 50 µg/mL; IC90 (Rhizoctonia solani (Rs); mycelial plugs, growth inhibition at 48 hours vs 2% DMSO control, read-out: Concentration at 90% Inhibition Rs): 10 µg/mL (≈ 16.7 µM); IC90 (Septoria tritici (St); Septoria tritici, growth inhibition at 48 hours vs 2% DMSO control, read-out: Concentration at 90% Inhibition St): > 50 µg/mL

Q: For `COCCO[C@@H](Cn1c(=O)n([C@@H](C)C(=O)NC(C)C)c(=O)c2c(C)c(-n3nccn3)sc21)c1cc(F)ccc1OC` [Compound I-66, (S)-2-(1-((R)-2-(5-fluoro-2-methoxyphenyl)-2-(2-methoxy-ethoxy)ethyl)-5-methyl-2,4-dioxo-6-(2H-1,2,3-triazol-2-yl)-1,4-dihydrothieno[2,3-d]pyrimidin-3(2H)-yl)-N-isopropylpropanamide], which IC50 (human (hACC2); Table 2a) is on record?
A: 5 to 10 nM

Q: And the IC50 (human (hACC2); Table 2b, additional results)?
A: 5 to 10 nM

Q: What about the “MIC, C. albicans ATCC 90028” value (C. albicans; Table 3a) of the same compound?
A: C (MIC of 2.1-4.0 μg/mL)

Q: What about the “MIC, C. albicans ATCC 90028” value (C. albicans; Table 3b (additional results)) of the same compound?
A: D (MIC of >4.01 μg/mL)

Q: And the “MIC, C. krusei ATCC 6258” value (C. krusei; Table 3a)?
A: B (MIC of 1.1-2.0 μg/mL)

Q: What about the “MIC, C. krusei ATCC 6258” value (C. krusei; Table 3b (additional results)) of the same compound?
A: C (MIC of 2.01-4.0 μg/mL)

Q: What about the “MIC, C. parapsilosis ATCC 22019” value (C. parapsilosis; Table 3a) of the same compound?
A: B (MIC of 1.1-2.0 μg/mL)

Q: And the “MIC, C. parapsilosis ATCC 22019” value (C. parapsilosis; Table 3b (additional results))?
A: B (MIC of 1.01-2.0 μg/mL)

Q: What about the IC90 (Botrtyis cinerea (Bc); read-out: Concentration at 90% Inhibition Bc, Botrtyis cinerea, growth inhibition at 48 hours vs 2% DMSO control) of the same compound?
A: 2 µg/mL (≈ 3.4 µM)

Q: What about the IC90 (Botrtyis cinerea (Bc); read-out: Concentration at 90% Inhibition Bc, Botrtyis cinerea, growth inhibition vs 2% DMSO control at 48 hours) of the same compound?
A: 2 µg/mL (≈ 3.4 µM)

Q: What about the IC90 ([1]; read-out: Concentration at 90% Inhibition Cg, Collectotrichum graminicola, growth inhibition at 48 hours vs 2% DMSO control) of the same compound?
A: 0.4 µg/mL (≈ 0.68 µM)

Q: What about the IC90 ([1]; read-out: Concentration at 90% Inhibition Cg, Collectotrichum graminicola, growth inhibition vs 2% DMSO control at 48 hours) of the same compound?
A: 0.4 µg/mL (≈ 0.68 µM)

Q: And the IC90 (Diplodia maydis (Dm); read-out: Concentration at 90% Inhibition Dm, Diplodia maydis, growth inhibition at 48 hours vs 2% DMSO control)?
A: 0.4 µg/mL (≈ 0.68 µM)

Q: What about the IC90 (Diplodia maydis (Dm); read-out: Concentration at 90% Inhibition Dm, Diplodia maydis, growth inhibition vs 2% DMSO control at 48 hours) of the same compound?
A: 0.4 µg/mL (≈ 0.68 µM)

Q: And the “Concentration at 90% Inhibition Fm” value [2, 5]?
A: AA (compound concentration of 0.08 ppm at 90% inhibition of fungal pathogens)

Q: What about the IC90 [2] of the same compound?
A: 0.08 µg/mL (≈ 0.136 µM)

Q: What about the IC90 ([3]; read-out: Concentration at 90% Inhibition Fv, Fusarium virguliforme, growth inhibition at 48 hours vs 2% DMSO control) of the same compound?
A: 0.4 µg/mL (≈ 0.68 µM)

Q: And the IC90 ([3]; read-out: Concentration at 90% Inhibition Fv, Fusarium virguliforme, growth inhibition vs 2% DMSO control at 48 hours)?
A: 0.4 µg/mL (≈ 0.68 µM)

Q: And the IC90 ([4]; read-out: Concentration at 90% Inhibition Pc, Phytophthora capsici, growth inhibition at 48 hours vs 2% DMSO control)?
A: 10 µg/mL (≈ 17 µM)

Q: What about the IC90 ([4]; read-out: Concentration at 90% Inhibition Pc, Phytophthora capsici, growth inhibition vs 2% DMSO control at 48 hours) of the same compound?
A: > 50 µg/mL

Q: What about the IC90 (Rhizoctonia solani (Rs); read-out: Concentration at 90% Inhibition Rs, Rhizoctonia solani, mycelial plugs, growth inhibition at 48 hours vs 2% DMSO control) of the same compound?
A: 0.4 µg/mL (≈ 0.68 µM)

Q: And the IC90 (Rhizoctonia solani (Rs); read-out: Concentration at 90% Inhibition Rs, Rhizoctonia solani, mycelial plugs, growth inhibition vs 2% DMSO control at 48 hours)?
A: 0.08 µg/mL (≈ 0.136 µM)

Q: What about the IC90 (Septoria tritici (St); read-out: Concentration at 90% Inhibition St, Septoria tritici, growth inhibition at 48 hours vs 2% DMSO control) of the same compound?
A: > 50 µg/mL

Q: What about the IC90 (Septoria tritici (St); read-out: Concentration at 90% Inhibition St, Septoria tritici, growth inhibition vs 2% DMSO control at 48 hours) of the same compound?
A: > 50 µg/mL

Q: And the IC50 (fungal (fACC2); Table 2a)?
A: 1 to 5 nM

Q: And the IC50 (fungal (fACC2); Table 2b, additional results)?
A: 1 to 5 nM
